This passage reports Ki and EC50 results from US20240174696A1, “2,8-DIAZASPIRO[4.5]DECANE COMPOUNDS” (Genentech, Inc., priority 2021, published 2024).

As usually defined, the pKi is −log10 of the Ki, conventionally taken in molar units. Broadly, the pEC50 is the EC50 on a negative log10 scale, so that one unit is a factor of ten. Lower therefore signals a high EC50.

The target in test [1] is Human LATS2 catalytic domain (Homo sapiens (Human), UniProt Q9NRM7). In words: LATS2 High ATP HTRF Assay. Format: biochemical. To be noted: no asterisk: LATS2 High ATP HTRF Assay, 5000 μM ATP, 0.05 nM LATS2. An outline of the steps: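 LATS2 catalytic domain (G553-V1088) co-purified with Mob1b, 0.05 nM, pre-incubated 10 min with compound, then 5000 μM ATP and 0.5 μM STK S1 peptide in HEPES pH7.2 for 2 h at room temperature. HTRF 665/620 nm read; IC50 by four-parameter fit, Ki via Cheng-Prusoff with ATP Km 105 μM.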
Sequence of Human LATS2 catalytic domain (Q9NRM7 553-1088): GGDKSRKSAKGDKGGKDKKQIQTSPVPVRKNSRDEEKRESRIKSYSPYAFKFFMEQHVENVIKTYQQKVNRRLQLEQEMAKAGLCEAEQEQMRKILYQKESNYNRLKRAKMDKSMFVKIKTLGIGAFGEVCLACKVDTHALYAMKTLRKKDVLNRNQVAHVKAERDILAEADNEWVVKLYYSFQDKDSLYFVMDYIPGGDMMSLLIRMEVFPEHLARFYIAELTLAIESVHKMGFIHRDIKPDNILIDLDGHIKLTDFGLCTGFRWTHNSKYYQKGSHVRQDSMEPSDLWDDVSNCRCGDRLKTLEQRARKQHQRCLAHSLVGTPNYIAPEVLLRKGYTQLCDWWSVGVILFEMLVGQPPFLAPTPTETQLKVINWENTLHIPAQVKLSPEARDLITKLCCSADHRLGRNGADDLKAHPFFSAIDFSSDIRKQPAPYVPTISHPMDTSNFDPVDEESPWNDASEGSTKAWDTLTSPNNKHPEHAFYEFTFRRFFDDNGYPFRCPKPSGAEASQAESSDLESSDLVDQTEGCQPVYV
Sequence of Human LATS2 catalytic domain (Q7L9L4 whole entry partner, the tested form may be a part): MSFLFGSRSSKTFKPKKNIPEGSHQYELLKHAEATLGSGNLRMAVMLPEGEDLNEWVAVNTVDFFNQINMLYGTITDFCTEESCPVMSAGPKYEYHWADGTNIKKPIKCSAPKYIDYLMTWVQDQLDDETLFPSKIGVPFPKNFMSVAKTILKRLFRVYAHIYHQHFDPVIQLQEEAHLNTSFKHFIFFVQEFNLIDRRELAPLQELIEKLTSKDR
On the technique in general: Time-resolved FRET reads energy transfer from a long-lived donor to a nearby acceptor.

The target of test [2] is Human LATS1 catalytic domain (Homo sapiens (Human), UniProt O95835). In words: LATS1 High ATP HTRF Assay. The test is classed as biochemical. To be noted: 5000 μM ATP, 0.025 nM LATS1; Cheng-Prusoff. How it is done:
Human LATS1 catalytic domain which contains the amino acids E590-V1130 (accession NP_004681) was purified in-house. The LATS1 catalytic domain was co-purified with Mob1b (accession NP_775739). The LATS1 biochemical assay was performed using the HTRF KinEASE-STK S1 Kit (Cisbio, Cat #62ST1PEC), following the protocol from the manufacturer. Compounds were dispensed by the Echo Liquid Handler (Labcyte) into a white 384-well plate (PerkinElmer, Cat #6008289). 3 μL of 2×LATS1 enzyme solution was added to the compounds, followed by a 10 minute incubation at room temperature. Then, 3 μL of 2×ATP and STK S1 peptide solution was added to initiate the enzyme reaction for one hour at room temperature. The final condition of the reaction was 0.025 nM LATS1, 5000 μM ATP, 0.5 μM STK S1 peptide in 50 mM HEPES pH 7.2, 10 mM MgCl2, 0.1% BGG, 0.005% Brij-35, 1 mM DTT. The reaction was quenched and the HTRF signal was read.

In test [3] the test system is TAZ nuclear translocation in SW1990 cells. Nature of the test: TAZ Nuclear Translocation Assay. Format: cell-based. The conditions noted are these: Homo sapiens, 4 hours. An outline of the steps: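 SW1990 cells in RPMI1640/10% FBS treated with compounds for 4 h at 37 °C, then fixed and immunostained for TAZ with Hoechst nuclear counterstain and imaged by high-content imaging. Read-out is the nuclear/cytoplasmic-ring fluorescence ratio, normalized to DMSO (0%) and an inhibitor control (100%); EC50 from four-parameter fit.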

The subject of test [4] is pYAP(Ser127) in SW1990 cells. Nature of the test: pYAP(Ser127) HTRF Cellular Assay. The test is classed as cell-based. The conditions noted are these: Homo sapiens, 4 hours. The method, then: The SW1990 cells were seeded at 8000 cells/well by adding 30 μL/well of cells in RPMI1640, 10% FBS, 2 mM glutamine culture media to a 384-well plate (Corning 3570). The cells were incubated overnight at 37° C. Next day, compounds were directly added to the cells using the Echo Liquid Handler (Labcyte), incubate at 37° C. for 4 hours.
The HTRF assay was performed using the Cisbio phospho-YAP Ser127 HTRF kit (64YAPPEG). The media was aspirated from the cells. 20 μL of 1X lysis/blocking buffer was added to the cells, gently shake for 30 minutes at room temperature. 1 μL of the premixed antibody solution (1:40 dilution of each phospho-YAP Eu Cryptate antibody and phospho-YAP d2 antibody) was added to the cells. The plate was sealed and incubated overnight at room temperature. The HTRF (665 nm/620 nm) signal was read on the PHERAstar reader (BMG Labtech). The EC50 values were calculated by fitting the % inhibition with a nonlinear four-parameter logistical equation.

pEC50, pKi: −log10 of the molar value.

Sequence of Human LATS1 catalytic domain (O95835 590-1130): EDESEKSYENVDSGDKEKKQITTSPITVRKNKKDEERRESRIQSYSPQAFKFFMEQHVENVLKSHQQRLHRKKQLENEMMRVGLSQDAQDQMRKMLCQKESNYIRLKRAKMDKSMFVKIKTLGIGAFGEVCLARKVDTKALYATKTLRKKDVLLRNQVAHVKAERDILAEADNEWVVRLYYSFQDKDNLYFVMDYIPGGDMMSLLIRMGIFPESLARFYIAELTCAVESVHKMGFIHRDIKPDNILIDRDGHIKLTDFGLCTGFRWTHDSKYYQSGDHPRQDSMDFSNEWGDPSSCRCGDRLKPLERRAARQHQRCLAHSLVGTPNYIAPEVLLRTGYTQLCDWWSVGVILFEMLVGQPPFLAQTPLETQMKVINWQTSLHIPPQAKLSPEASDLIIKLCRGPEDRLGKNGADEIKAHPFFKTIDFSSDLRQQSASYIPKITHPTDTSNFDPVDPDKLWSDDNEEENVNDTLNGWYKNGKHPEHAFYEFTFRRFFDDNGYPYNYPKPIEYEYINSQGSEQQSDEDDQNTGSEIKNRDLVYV
Sequence of Human LATS1 catalytic domain (Q7L9L4 whole entry partner, the tested form may be a part): as the sequence (Q7L9L4 whole entry partner, the tested form may be a part) above

Turning to `C[C@H](O)CN1CCC2(CCN(c3nc(-c4ccncc4)nc4cnccc34)CC2)C1` (single isomer, unassigned) [Compound 115], the negative-log Ki (pKi) in test [1] was 9.89; in test [2], 11.20. In addition, the negative-log EC50 (pEC50) in test [3] was 6.52; in test [4], 6.51.
The like results for `C[C@@H](O)CN1CCC2(CCN(c3nc(-c4ccncc4)nc4cnccc34)CC2)C1` (single isomer, unassigned) [Compound 116] were, in that order, 9.89, 11.10, 6.51 and 6.49.
Take `O[C@@H]1CCC[C@H]1N1CCC2(CCN(c3nc(-c4ccncc4)nc4cnccc34)CC2)C1` (single isomer, unassigned) [Compound 128]: the values for the pKi in test [1] and in test [2] were 10.14 and 11.24, respectively. The negative-log EC50 (pEC50) in test [3] was 6.52; in test [4], 6.44.
On the same counts, the results for `O[C@H]1CCC[C@@H]1N1CCC2(CCN(c3nc(-c4ccncc4)nc4cnccc34)CC2)C1` (single isomer, unassigned) [Compound 129] are 10.12, 11.13, 6.85 and 6.54.
With `c1cc(-c2nc(N3CCC4(CCNC4)CC3)c3ccncc3n2)ccn1` [Compound 101, 2-(pyridin-4-yl)-4-(2,8-diazaspiro[4.5]decan-8-yl)pyrido[3,4-d]pyrimidine], the results for the negative-log Ki (pKi) in test [1] and in test [2] were 9.42 and 10.29, respectively. Further, the pEC50 is 6.00 in test [3] and 5.96 in test [4].
The like results for `CN1CCC2(CCN(c3nc(-c4ccncc4)nc4cnccc34)CC2)C1` [Compound 102, 4-(2-methyl-2,8-diazaspiro[4.5]decan-8-yl)-2-(pyridin-4-yl)pyrido[3,4-d]pyrimidine] were, in that order, 9.01, 10.96, 6.46 and 6.37.
On the same counts, the results for `CC(C)(O)CN1CCC2(CCN(c3nc(-c4ccncc4)nc4cnccc34)CC2)C1` [Compound 110, 2-methyl-1-(8-(2-(pyridin-4-yl)pyrido[3,4-d]pyrimidin-4-yl)-2,8-diazaspiro[4.5]decan-2-yl)propan-2-ol] are 10.12, 11.10, 6.66 and 6.48.
As to `COCCN1CCC2(CCN(c3nc(-c4ccncc4)nc4cnccc34)CC2)C1` [Compound 121, 4-(2-(2-methoxyethyl)-2,8-diazaspiro[4.5]decan-8-yl)-2-(pyridin-4-yl)pyrido[3,4-d]pyrimidine], the pKi in test [1] is 9.10. The results for the negative logarithm of the EC50 (pEC50) in test [3] and in test [4] were 6.52 and 6.20, respectively.
For the compound `c1cc(-c2nc(N3CCC4(CCN(CC5COC5)C4)CC3)c3ccncc3n2)ccn1` [Compound 124, 4-(2-(oxetan-3-ylmethyl)-2,8-diazaspiro[4.5]decan-8-yl)-2-(pyridin-4-yl)pyrido[3,4-d]pyrimidine], the pKi in test [1] is 10.08; in test [2], 11.17. Further, the negative-log EC50 (pEC50) in test [3] was 6.62; in test [4], 6.59.
In turn, `FC(F)CN1CCC2(CCN(c3nc(-c4ccncc4)nc4cnccc34)CC2)C1` [Compound 127, 4-(2-(2,2-difluoroethyl)-2,8-diazaspiro[4.5]decan-8-yl)-2-(pyridin-4-yl)pyrido[3,4-d]pyrimidine] gave a pKi in test [1] of 9.26. Further, the pEC50 was 5.89 in test [3] and 5.47 in test [4].
With `c1cc(-c2nc(N3CCC4(CC3)CCN(C3CCC3)C4)c3ccncc3n2)ccn1` [Compound 131, 4-(2-cyclobutyl-2,8-diazaspiro[4.5]decan-8-yl)-2-(pyridin-4-yl)pyrido[3,4-d]pyrimidine], the negative-log Ki (pKi) in test [1] was 9.54. Besides, the pEC50 in test [3] is 6.55; in test [4], 6.31.
On the same counts, the results for `c1ccc(CN2CCC3(CCN(c4nc(-c5ccncc5)nc5cnccc45)CC3)C2)cc1` [Compound 133, 4-(2-benzyl-2,8-diazaspiro[4.5]decan-8-yl)-2-(pyridin-4-yl)pyrido[3,4-d]pyrimidine] are 10.16, 6.40 and 6.60.
`CCN1CCC2(CCN(c3nc(-c4ccncc4)nc4cnccc34)CC2)C1` [Compound 138, 4-(2-ethyl-2,8-diazaspiro[4.5]decan-8-yl)-2-(pyridin-4-yl)pyrido[3,4-d]pyrimidine] gave a pKi in test [1] of 9.21. The negative logarithm of the EC50 (pEC50) in test [3] was 6.23; in test [4], 6.05.
On to `Cc1n[nH]cc1-c1nc(N2CCC3(CCN(C)C3)CC2)c2ccncc2n1` [Compound 143, 2-(3-methyl-1H-pyrazol-4-yl)-4-(2-methyl-2,8-diazaspiro[4.5]decan-8-yl)pyrido[3,4-d]pyrimidine], for which the negative logarithm of the Ki (pKi) in test [1] is 9.82. Moreover, the pEC50 was 6.15 in test [3] and 6.00 in test [4].
Consider `Cc1n[nH]cc1-c1nc(N2CCC3(CC2)CCN(C2CCCC2)C3)c2ccncc2n1` [Compound 147, 4-(2-cyclopentyl-2,8-diazaspiro[4.5]decan-8-yl)-2-(3-methyl-1H-pyrazol-4-yl)pyrido[3,4-d]pyrimidine], for which the values for the negative-log Ki (pKi) in test [1] and in test [2] were 10.25 and 10.89, respectively. The pEC50 in test [3] is 6.74; in test [4], 6.68.
`CCN1CCC2(CCN(c3nc(-c4cn[nH]c4C)nc4cnccc34)CC2)C1` [Compound 151, 4-(2-ethyl-2,8-diazaspiro[4.5]decan-8-yl)-2-(5-methyl-1H-pyrazol-4-yl)pyrido[3,4-d]pyrimidine]: the pKi in test [1] is 10.05. Besides, the figures for the negative logarithm of the EC50 (pEC50) in test [3] and in test [4] were 6.33 and 6.41, respectively.
On to `c1ccc(Cc2cc3c(N4CCC5(CCNC5)CC4)nc(-c4ccncc4)nc3cn2)cc1` [Compound 157, 6-benzyl-2-(pyridin-4-yl)-4-(2,8-diazaspiro[4.5]decan-8-yl)pyrido[3,4-d]pyrimidine], for which the pKi was 10.17 in test [1] and 10.31 in test [2]. Also, the pEC50 is 6.62 in test [3] and 6.29 in test [4].
Turning to `CC1CC2(CCN(c3nc(-c4ccncc4)nc4cnccc34)CC2)CN1` (stereo not shown) [Compound 167, 4-(3-methyl-2,8-diazaspiro[4.5]decan-8-yl)-2-(pyridin-4-yl)pyrido[3,4-d]pyrimidine], in test [1], the negative-log Ki (pKi) is 9.24. The pEC50 was 6.27 in test [3] and 6.52 in test [4].
